Test system: Puccinia recondita
Experiment: Curative activity against brown rust of wheat caused by Puccinia recondita
Assay type: in vivo
Details: 250 ppm, wheat seedlings cultivar Kanzler, 7 days after treatment, untreated plants 90% infected
Protocol: The active compounds were prepared separately or together as a stock solution with 25 mg of active compound which was made up to 10 ml using a mixture of acetone and/or dimethyl sulfoxide (DMSO) and the emulsifier Wettoll® EM 31 (wetting agent having emulsifying and dispersing action based on the ethoxylated alkylphenols) in a volume ratio of solvent/emulsifier of 99 to 1. The mixture was then made up with water to 100 ml. This stock solution was diluted with the solvent/emulsifier/water mixture described to the concentration of active compound stated below.
Leaves of potted wheat seedlings of the cultivar “Kanzler” were inoculated with a spore suspension of brown rust of wheat (Puccinia recondite). The pots were then placed in a chamber with high atmospheric humidity (90 to 95%) and 20 to 22° C. for 24 hours. During this time, the spores germinated and the germ tubes penetrated into the leaf tissue. The next day, the infected plants were sprayed to runoff point with the above-described active compound solution having the active compound concentration stated below. After the spray coating had dried on, the test plants were cultivated in a greenhouse at temperatures between 20 and 22° C. and 65 to 70% relative atmospheric humidity for 7 days. The extent of the rust fungus development on the leaves was then determined.

| Compound | infection (extent of the rust fungus development on the leaves) |
| --- | --- |
| COc1ccc(-c2nc(-c3ncc4c(n3)CCCCC4)ccc2C)cn1 [Example 44] | no infection |
| COc1ccc(-c2nc(-c3ncc4c(n3)CCCCC4)ccc2C)cn1 [drawing 28] | 90% |
